In patent US20160237067A1, “SUBSTITUTED PHENYLALANINE DERIVATIVES” (BAYER PHARMA AKTIENGESELLSCHAFT, priority 2013, published 2016):
Counter-ions that a name gives are not always drawn.

Legend:
human factor XIa = target: T1, human factor XIa (Homo sapiens, UniProt P03951); assay: Measurement of FXIa inhibition (fluorogenic peptide substrate Boc-Glu(OBzl)-Ala-Arg-AMC); format: biochemical; conditions: factor XIa from Kordia 0.45 nM; 15 min preincubation; 30 min at 22° C.
T1 construct: purchased Kordia
Procedure: The factor XIa inhibition of the substances according to the invention is determined using a biochemical test system which utilizes the reaction of a peptidic factor XIa substrate to determine the enzymatic activity of human factor XIa. Here, factor XIa cleaves from the peptic factor XIa substrate the C-terminal aminomethylcoumarin (AMC), the fluorescence of which is measured. The determinations are carried out in microtitre plates.
Test substances are dissolved in dimethyl sulphoxide and serially diluted in dimethyl sulphoxide (3000 μM to 0.0078 μM; resulting final concentrations in the test: 50 μM to 0.00013 μM). In each case 1 μl of the diluted substance solutions is placed into the wells of white microtitre plates from Greiner (384 wells). Subsequently, the following are added successively: 20 μl of assay buffer (50 mmol/l Tris buffer pH 7.4; 100 mmol/l sodium chloride; 5 mmol/l calcium chloride; 0.1% bovine serum albumin) and 20 μl of factor XIa from Kordia (0.45 nM in assay buffer). After 15 min of incubation, the enzyme reaction is started by addition of 20 μl of the factor XIa substrate Boc-Glu(OBzl)-Ala-Arg-AMC dissolved in assay buffer (10 μM in assay buffer) from Bachem, the mixture is incubated at room temperature (22° C.) for 30 min and fluorescence is then measured (excitation: 360 nm, emission: 460 nm). The measured emissions of the test batches with test substance are compared to those of control batches without test substance (only dimethyl sulphoxide instead of test substance in dimethyl sulphoxide), and IC50 values are calculated from the concentration/activity relationships.

human and animal plasma = assay: Determination of anticoagulatory activity: activated partial thromboplastin time (aPTT) in plasma; format: biochemical; conditions: C.K. Prest kit, 37° C., 3 minutes incubation, plasma species of Table B not stated
Procedure: The anticoagulatory activity of the test substances is determined in vitro in human and animal plasma (for example mouse, rat, rabbit, pig and dog plasma). To this end, blood is drawn off in a mixing ratio of sodium citrate/blood of 1:9 using a 0.11 molar sodium citrate solution as receiver. Immediately after the blood has been drawn off, it is mixed thoroughly and centrifuged at about 4000 g for 15 minutes. The supernatant is pipetted off.
The activated partial thromboplastin time (aPTT) is determined in the presence of varying concentrations of test substance or the corresponding solvent using a commercial test kit (C.K. Prest from Diagnostica Stago). The test compounds are incubated with the plasma and the PTT reagent (cephalin, kaolin) at 37° C. for 3 minutes. Coagulation is then started by addition of a 25 mM aqueous calcium chloride solution, and the time when coagulation occurs is determined. The concentration of test substance which brings about a 1.5-fold extension of the aPTT is determined Activity data from this test are listed in Table B below: […]

T1 sequence (P03951 388-625 limits assumed): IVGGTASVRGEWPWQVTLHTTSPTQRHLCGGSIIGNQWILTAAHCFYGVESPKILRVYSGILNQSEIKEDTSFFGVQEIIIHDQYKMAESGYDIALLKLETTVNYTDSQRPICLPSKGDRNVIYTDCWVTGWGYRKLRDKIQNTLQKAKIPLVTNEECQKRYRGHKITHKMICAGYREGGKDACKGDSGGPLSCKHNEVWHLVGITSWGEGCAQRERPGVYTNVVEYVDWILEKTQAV
T1 sequence (P03951 19-387 partner limits assumed): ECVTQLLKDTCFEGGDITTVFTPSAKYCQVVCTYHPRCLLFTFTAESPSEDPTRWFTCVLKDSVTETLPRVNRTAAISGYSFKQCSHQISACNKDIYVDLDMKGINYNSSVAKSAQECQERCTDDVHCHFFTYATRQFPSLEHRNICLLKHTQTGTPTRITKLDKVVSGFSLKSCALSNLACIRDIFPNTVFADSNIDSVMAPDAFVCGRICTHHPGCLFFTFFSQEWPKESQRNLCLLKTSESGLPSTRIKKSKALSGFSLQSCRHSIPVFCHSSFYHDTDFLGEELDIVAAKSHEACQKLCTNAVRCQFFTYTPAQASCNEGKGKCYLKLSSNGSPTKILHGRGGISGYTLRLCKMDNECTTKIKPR

Row | Structure (SMILES) | IC50 (human factor XIa) | aPTT (concentration of test substance which brings about a 1.5-fold extension of the aPTT) (human and animal plasma)
1 | NC[C@H]1CC[C@H](C(=O)N[C@@H](Cc2ccc(-c3cccc(C(=O)NC4CCNCC4)c3F)cc2)C(=O)Nc2ccc(-c3nn[nH]n3)cc2)CC1 [Example 15, 4′-[(2S)-2-({[trans-4-(Aminomethyl)cyclohexyl]carbonyl}amino)-3-oxo-3-{[4-(2H-tetrazol-5-yl)phenyl]amino}propyl]-2-fluoro-N-(piperidin-4-yl)biphenyl-3-carboxamide hydrochloride] | 10 nM | 0.52 µmol/L
2 | Cc1ccc(S(=O)(=O)N(C)C)cc1-c1ccc(C[C@H](NC(=O)[C@H]2CC[C@H](CN)CC2)C(=O)Nc2ccc3[nH]c(=O)[nH]c3c2)cc1 [Example 25, trans-4-(Aminomethyl)-N-{(2S)-3-[5′-(dimethylsulphamoyl)-2′-methylbiphenyl-4-yl]-1-oxo-1-[(2-oxo-2,3-dihydro-1H-benzimidazol-5-yl)amino]propan-2-yl}cyclohexanecarboxamide hydrochloride] | 6.1 nM | 0.15 µmol/L
3 | Cc1cc(C(=O)NC2CCC(N(C)C)CC2)cc(-c2ccc(C[C@H](NC(=O)[C@H]3CC[C@H](CN)CC3)C(=O)Nc3ccc(-c4nn[nH]n4)cc3)cc2)c1 (stereo partly drawn) [Example 37, 4′-[(2S)-24 {[trans-4-(Aminomethyl)cyclohexyl]carbonyl}amino)-3-oxo-3-{[4-(2H-tetrazol-5-yl)phenyl]amino}propyl]-N-[4-(dimethylamino)cyclohexyl]-5-methylbiphenyl-3-carboxamide hydrochloride] | 7.5 nM | 0.14 µmol/L
4 | CCN(CC)CCNC(=O)c1cccc(-c2ccc(C[C@H](NC(=O)[C@H]3CC[C@H](CN)CC3)C(=O)Nc3ccc(-c4nn[nH]n4)cc3)cc2)c1F [Example 16, 4′-[(2S)-2-({[trans-4-(Aminomethyl)cyclohexyl]carbonyl}amino)-3-oxo-3-{[4-(2H-tetrazol-5-yl)phenyl]amino}propyl]-N-[2-(diethylamino)ethyl]-2-fluorobiphenyl-3-carboxamide hydrochloride] | 9 nM | 0.2 µmol/L
5 | Cc1cc(C(=O)NC2CCNCC2)cc(-c2ccc(C[C@H](NC(=O)[C@H]3CC[C@H](CN)CC3)C(=O)Nc3ccc(-c4nn[nH]n4)cc3)cc2)c1 [Example 40, 4′-[(2S)-2-({[trans-4-(Aminomethyl)cyclohexyl]carbonyl}amino)-3-oxo-3-{[4-(2H-tetrazol-5-yl)phenyl]amino}propyl]-5-methyl-N-(piperidin-4-yl)biphenyl-3-carboxamide hydrochloride] | 4.1 nM | 0.06 µmol/L
6 | Cc1c(F)cc(C(=O)NC2CCNCC2)cc1-c1ccc(C[C@H](NC(=O)[C@H]2CC[C@H](CN)CC2)C(=O)Nc2ccc(-c3nn[nH]n3)cc2)cc1 [Example 31, 4′-[(2S)-2-({[trans-4-(Aminomethyl)cyclohexyl]carbonyl}amino)-3-oxo-3-{[4-(2H-tetrazol-5-yl)phenyl]amino}propyl]-5-fluoro-6-methyl-N-(piperidin-4-yl)biphenyl-3-carboxamide hydrochloride] | 4.5 nM | 0.16 µmol/L
7 | CCc1ccc(C(=O)NCCN(CC)CC)cc1-c1ccc(C[C@H](NC(=O)[C@H]2CC[C@H](CN)CC2)C(=O)Nc2ccc(-c3nn[nH]n3)cc2)cc1 [Example 23, 4′-[(2S)-2-({[trans-4-(Aminomethyl)cyclohexyl]carbonyl}amino)-3-oxo-3-{[4-(2H-tetrazol-5-yl)phenyl]amino}propyl]-N-[2-(diethylamino)ethyl]-6-ethylbiphenyl-3-carboxamide hydrochloride] | 13 nM | 0.36 µmol/L
8 | Cc1ccc(C(=O)N2CCNCC2)cc1-c1ccc(C[C@H](NC(=O)[C@H]2CC[C@H](CN)CC2)C(=O)Nc2ccc(-c3nn[nH]n3)cc2)cc1 [Example 12, trans-4-(Aminomethyl)-N-[(2S)-3-[2′-methyl-5′-(piperazin-1-ylcarbonyl)biphenyl-4-yl]-1-oxo-1-{[4-(2H-tetrazol-5-yl)phenyl]amino}propan-2-yl]cyclohexanecarboxamide hydrochloride] | 8.1 nM | 0.49 µmol/L

Continued by falling IC50 (human factor XIa), values first:

Row | IC50 (human factor XIa) | Structure (SMILES) | aPTT (concentration of test substance which brings about a 1.5-fold extension of the aPTT) (human and animal plasma)
9 | 11 nM | Cc1ccc(-c2ccc(C[C@H](NC(=O)[C@H]3CC[C@H](CN)CC3)C(=O)Nc3ccc(-c4nn[nH]n4)cc3)cc2)cc1NC(=O)C1CCOCC1 [Example 29, N-{4′-[(2S)-2-({[trans-4-(Aminomethyl)cyclohexyl]carbonyl}amino)-3-oxo-3-{[4-(2H-tetrazol-5-yl)phenyl]amino}propyl]-4-methylbiphenyl-3-yl}tetrahydro-2H-pyran-4-carboxamide hydrochloride] | 0.3 µmol/L
10 | 6.9 nM | CCOC(=O)c1cccc(-c2ccc(C[C@H](NC(=O)[C@H]3CC[C@H](CN)CC3)C(=O)Nc3ccc(-c4nn[nH]n4)cc3)cc2)c1F [Example 8, Ethyl 4′-[(2S)-2-({[trans-4-(aminomethyl)cyclohexyl]carbonyl}amino)-3-oxo-3-{[4-(2H-tetrazol-5-yl)phenyl]amino}propyl]-2-fluorobiphenyl-3-carboxylate hydrochloride] | 0.51 µmol/L
11 | 6.9 nM | Cc1ccc(C(=O)N[C@@H]2CCNC2)cc1-c1ccc(C[C@H](NC(=O)[C@H]2CC[C@H](CN)CC2)C(=O)Nc2ccc(-c3nn[nH]n3)cc2)cc1 [Example 11, 4′-[(2S)-2-({[trans-4-(Aminomethyl)cyclohexyl]carbonyl}amino)-3-oxo-3-{[4-(2H-tetrazol-5-yl)phenyl]amino}propyl]-6-methyl-N-[(3R)-pyrrolidin-3-yl]biphenyl-3-carboxamide hydrochloride] | 0.26 µmol/L
12 | 6 nM | NC[C@H]1CC[C@H](C(=O)N[C@@H](Cc2ccc(-c3cccc(C(=O)NCCN4CCOCC4)c3)cc2)C(=O)Nc2ccc(-c3nnn[nH]3)cc2)CC1 [Example 27, 4′-[(2S)-2-({[trans-4-(Aminomethyl)cyclohexyl]carbonyl}amino)-3-oxo-3-{[4-(1H-tetrazol-5-yl)phenyl]amino}propyl]-N-[2-(morpholin-4-yl)ethyl]biphenyl-3-carboxamide hydrochloride] | 0.19 µmol/L
13 | 1.9 nM | Cc1ccc(C(=O)NC2CCNC(=O)C2)cc1-c1ccc(C[C@H](NC(=O)[C@H]2CC[C@H](CN)CC2)C(=O)Nc2ccc(-c3nn[nH]n3)cc2)cc1 (stereo partly drawn) [Example 36, 4′-[(2S)-2-({[trans-4-(Aminomethyl)cyclohexyl]carbonyl}amino)-3-oxo-3-{[4-(2H-tetrazol-5-yl)phenyl]amino}propyl]-6-methyl-N-(2-oxopiperidin-4-yl)biphenyl-3-carboxamide hydrochloride] | 0.14 µmol/L
